Measured values reported in patent US10584157B2 (priority 2015, dated 2020).
“And” between values parts separate entries of the source, which are not always exact repeats. Equal values may be shown once. “Also recorded” adds a separate entry of the source. Read-outs that look alike come from different tables or passages of the source. Square brackets hold non-standard residues; d marks the D form. Ends that are not written are not given here. Peptide text beside a SMILES is read from it.

Tests used:
[1] = target: TSST-1 (Staphylococcus aureus, UniProt P06886); assay: biochemical; type: binding, S. aureus; conditions: for kon: read-out: Ka (1/Ms), association rate; for koff: read-out: Kd (1/s), dissociation rate
Chain of TSST-1 (P06886 41-234 limits assumed): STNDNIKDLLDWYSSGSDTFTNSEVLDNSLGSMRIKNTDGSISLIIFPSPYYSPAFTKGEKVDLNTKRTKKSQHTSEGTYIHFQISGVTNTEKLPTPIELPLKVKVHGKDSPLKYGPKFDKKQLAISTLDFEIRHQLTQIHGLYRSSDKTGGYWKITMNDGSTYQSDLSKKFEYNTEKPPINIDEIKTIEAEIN

[2] = system: SMEZ; type: binding, Streptococcus pyogenes
[3] = system: PBMC induced with SEB; type: cell-based, human
[4] = target: SEB (Staphylococcus aureus, UniProt P01552); assay: biochemical; type: binding, S. aureus; conditions: for kon: read-out: Ka (1/Ms), association rate; for koff: read-out: Kd (1/s), dissociation rate
Chain of SEB (P01552 28-266 limits assumed): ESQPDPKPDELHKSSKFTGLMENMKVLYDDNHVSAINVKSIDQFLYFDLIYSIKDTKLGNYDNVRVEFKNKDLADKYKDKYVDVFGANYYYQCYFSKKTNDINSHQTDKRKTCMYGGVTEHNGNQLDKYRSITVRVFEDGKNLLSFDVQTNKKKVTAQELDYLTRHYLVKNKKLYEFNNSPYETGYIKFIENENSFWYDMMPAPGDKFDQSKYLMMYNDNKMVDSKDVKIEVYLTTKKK

[5] = system: cell-surface CD28; type: binding
Chain of cell-surface CD28 (P01552 28-266 limits assumed): as above

[6] = target: cell-surface CD28 (Staphylococcus aureus, UniProt P01552); conditions: cited from earlier work
Chain of cell-surface CD28 (Staphylococcus aureus, UniProt P01552) (P01552 28-266 limits assumed): as above

[7] = system: cell-surface B7-2; type: binding, human
Chain of cell-surface B7-2 (P01552 28-266 limits assumed): as above

[8] = system: PBMC induced with αCD3/αCD28; type: cell-based, human
[9] = system: PBMC induced with E. coli LPS; type: cell-based, human
[10] = system: SEB lethality in D-galactosamine-sensitized mice; type: in vivo, BALB/c mice
[11] = system: PBMC induced with αCD3; type: cell-based, human

CSCC[C@H](NC(=O)[C@H](Cc1ccc(O)cc1)NC(=O)[C@H](CCCCN)NC(=O)[C@H](CO)NC(=O)[C@H](Cc1c[nH]cn1)NC(=O)[C@@H](NC(=O)[C@H](CO)NC(=O)[C@H](CC(=O)O)NC(=O)[C@H](Cc1ccccc1)NC(=O)[C@H](CCCCN)NC(=O)[C@@H](N)CCC(=O)O)C(C)C)C(=O)O [pB2-4] (H-EKFDSVHSKYM-OH; N-terminus and C-terminus assumed)
kon [1]: 4080 M⁻¹ s⁻¹ | koff [1]: 0.0277 s⁻¹ | Ka (1/Ms), association rate [2]: 3,020 1/Ms | Kd (1/s), dissociation rate [2]: 0.00293 s⁻¹ | inhibition of SEB-mediated induction of IFN-γ [3]: only partially | inhibition of SEB-mediated induction of IL-2 [3]: only partially | inhibition of SEB-mediated induction of TNF-α [3]: only partially | kon [4]: 413 M⁻¹ s⁻¹ | koff [4]: 0.000958 s⁻¹

CC(C)C[C@H](NC(=O)[C@@H](NC(=O)[C@H](Cc1c[nH]c2ccccc12)NC(=O)[C@H](CO)NC(=O)[C@H](CC(=O)O)NC(=O)[C@H](CO)NC(=O)[C@@H](N)CC(=O)O)[C@@H](C)O)C(=O)N[C@@H](CCCNC(=N)N)C(=O)O [pB2-6] (H-DSDSWTLR-OH; N-terminus and C-terminus assumed)
kon [1]: 2530 M⁻¹ s⁻¹ | koff [1]: 0.00304 s⁻¹ | Ka (1/Ms), association rate [2]: 1,590 1/Ms | Kd [2]: 1.79 µM | Kd (1/s), dissociation rate [2]: 0.00286 s⁻¹ | inhibition of SEB-mediated induction of IFN-γ [3]: only partially | inhibition of SEB-mediated induction of IL-2 [3]: only partially | inhibition of SEB-mediated induction of TNF-α [3]: only partially | kon [4]: 491 M⁻¹ s⁻¹ | koff [4]: 0.0019 s⁻¹

HVKGKHLCP [p1TA, reference compound]
blocking of binding of SEB to cell-surface CD28 [5]: capable of blocking | blocking of binding of SEB to cell-surface CD28 [6]: abrogated | inhibition of binding of SEB to cells expressing B7-2 [7]: equally inhibited

MGRTSFDSDS [pB2-7]
attenuation of IFN-γ expression induced by αCD3/αCD28 [8]: significant attenuation | attenuation of TNF-α expression induced by αCD3/αCD28 [8]: significant attenuation | inhibition of SEB-mediated induction of IFN-γ [3]: inhibited | inhibition of SEB-mediated induction of IL-2 [3]: inhibited | inhibition of SEB-mediated induction of IL-10 [3]: did not inhibit | inhibition of SEB-mediated induction of TNF-α [3]: inhibited

SPMLVAYD [p2TA, reference compound]
blocking of binding of SEB to cell-surface CD28 [5]: capable of blocking | blocking of binding of SEB to cell-surface CD28 [6]: abrogated | inhibition of binding of SEB to cells expressing B7-2 [7]: equally inhibited

[dA]DLPCQFANSQN[dA] [D-Ala-pB2-2]
inhibition of SEB-mediated induction of IFN-γ [3]: failed to inhibit | inhibition of binding of SEB to cells expressing B7-2 [7]: did not inhibit binding

[dA]DSDSWTLR[dA] [D-Ala-pB2-6]
blocking of binding of SEB to cell-surface CD28 [5]: capable of blocking | attenuation of LPS-mediated induction of TNF-α [9]: sensitive to attenuation; also recorded: reduced | survival of SEB challenge (mice surviving/group) ([10]; n=5): 5/5 | effect on SEB-mediated induction of IL-10 [3]: resistant | inhibition of SEB-mediated induction of IFN-γ [3]: strongly inhibitory | inhibition of SEB-mediated induction of IL-2 [3]: inhibited | inhibition of SEB-mediated induction of TNF-α [3]: inhibited | inhibition of binding of SEB to cells expressing B7-2 [7]: effectively blocked

[dA]EKFDSVHSKYM[dA] [D-Ala-pB2-4]
blocking of binding of SEB to cell-surface CD28 [5]: capable of blocking | attenuation of LPS-mediated induction of TNF-α [9]: sensitive to attenuation; also recorded: reduced | inhibition of CD28 signaling, IFN-γ induced by αCD3/αCD28 [8]: inhibition | inhibition of CD28 signaling, TNF-α induced by αCD3/αCD28 [8]: inhibition | survival of SEB challenge (mice surviving/group) ([10]; n=5): 4/5 | effect on SEB-mediated induction of IL-10 [3]: resistant | inhibition of SEB-mediated induction of IFN-γ [3]: strongly inhibitory | inhibition of SEB-mediated induction of IL-2 [3]: inhibited | inhibition of SEB-mediated induction of TNF-α [3]: inhibited | inhibition of binding of SEB to cells expressing B7-2 [7]: effectively blocked

[dA]HHKKPTGMIR[dA] [D-Ala-pB2-3]
inhibition of SEB-mediated induction of IFN-γ [3]: failed to inhibit

[dA]MGRTSFDSDS[dA] [D-Ala-pB2-7]
blocking of binding of SEB to cell-surface CD28 [5]: capable of blocking | induction of an IFN-γ response by the peptide alone [11]: at neither concentration | inhibition of induction of IFN-γ by αCD3 [11]: did not inhibit | attenuation of LPS-mediated induction of TNF-α [9]: reduced | survival of SEB challenge (mice surviving/group) ([10]; n=6): protected and 6/6 | inhibition of binding of SEB to cells expressing B7-2 [7]: likewise blocked

[dA]MLKIQAY[dA] [D-Ala-pB2-5]
inhibition of SEB-mediated induction of IFN-γ [3]: failed to inhibit
